Legend:
[1] = tested on: C57BL/6J mice on high fat diet; assay: Systemic insulin sensitivity (fasting glucose, insulin, ITT, HOMA-IR) in HFD mice; format: in vivo, mouse; conditions: butyrate 5% w/w in HFD
Description: ITT was conducted by intra-peritoneal (i.p.) injection of insulin (I9278, Sigma) at 0.75 U/kg body weight in mice after a 4 hour fast as previously described (15). Blood glucose was monitored in the tail vein blood using the FreeStyle blood glucose monitoring system (TheraSense, Phoenix, Ariz.).
To test this possibility, systemic insulin sensitivity was analyzed using fasting glucose, insulin, and insulin tolerance.
Tail vein blood was used for the glucose assay after 16 hr fasting during the period of HFD feeding. […] The insulin was determined at 16 weeks on HFD in fasting condition with Lincoplex kit (#MADPK-71k-03, Linco Research Inc., St. Charles, Mo.). […] ITT was done at 12 weeks on HFD (at 16 weeks of age). In FIGS. 2A-2C, data are presented as means±SE (N=9). *P<0.05, **P<0.001 by Student's t test. […] After an overnight fast, blood glucose and insulin were measured and used to determine insulin sensitivity through HOMA IR (IR=fasting insulin […] X fasting glucose mg/dL÷405). Values are the means±SE (N=8 mice). ** P<0.001. […] The gastrocnemius muscle was isolated after insulin (0.75 U/kg) injection in mice for 30 min and used to prepare the whole cell lysate for an immunoblot. The mice on HFD for 13 weeks were used in the signaling assay. FIG. 2F illustrates the degree of the blot signal in the panel 2E, by quantifying the signal and normalizing with protein loading. **P<0.001 (n=2).

L6 muscle cells = assay: Immunoblot of L6 myotubes; format: cell-based; conditions: 500 μM sodium butyrate, 4 hours
Description: To further test the effect of butyrate on muscle, AMPK and PGC-1α were assayed in L6 muscle cells treated with butyrate. Differentiated L6 myotubes were starved in 0.25% BSA DMEM for overnight. The cells were treated with 500 μM of sodium butyrate for 4 hours and analyzed in an immunoblot. […] In the same culture, the PGC-1α protein was increased (FIG. 6A).

[2] = tested on: brown adipose tissue PGC-1α and UCP-1; assay: Brown adipose tissue morphology, qRT-PCR and immunoblot; format: in vivo, mouse
Description: (§1) Total RNA was extracted from frozen tissues (kept at −80° C.) using Tri-Reagent (T9424, Sigma) as described elsewhere (16). Taqman RT-PCR primer and probe were used to determine mRNA for PGC-1α (Mm00447183_m1), UCP-1 (Mm00494069_m1), PPARδ (Mm01305434_m1) and CPT1b (Mm00487200_m1). The reagents were purchased from Applied Biosystems (Foster City, Calif.). Mouse ribosome 18S rRNA_s1 (without intron-exon junction) was used as an internal control. Reaction was conducted with 7900 HT Fast real time PCR System (Applied Biosystems, Foster City, Calif.).
Fresh fat and muscles were collected and frozen in liquid nitrogen. The whole cell lysate protein was extract in lysis buffer with sonication and analyzed in western blot as described elsewhere (16). Antibodies were used in study of myoglobin (sc-25607, Santa Cruz), PGC-1 (sc-13068, Santa Cruz), Tubulin (ab7291, Abcam), myosin (M8421, Sigma), pAMPK (Thr 172, #2531, Cell signaling) and p-p38 (sc-7975, Santa Cruz). To detect multiple signals from one membrane, the membrane was stripped with a stripping buffer. Intensity of the immunoblot signal was quantified using a computer program, ImageJ 1.37v (NIH). The mean values of results from three experiments (6 mice each group) were presented. The antibodies to PGC-1α and UCP-1 were from Dr. Thomas Gettys at Pennington Biomedical Research Center, Baton Rouge, La.
Fresh tissues (muscle, fat and liver) were collected at 16 weeks of age after 12 weeks butyrate feeding and fixed in 10% neutral buffered formalin solution (HT50-1-2, Sigma). The tissue slides were obtained through serial cross-section cutting at 8 um thickness and processed with a standard procedure. Briefly, the slides were deparaffinated and stained in haematoxylin (#101542, Surgipath) for 15 min, and rinsed in water until sections are blue. Then, slides were stained in Eosin (E4009, Sigma), dehydrated quickly in 95% ethanol and treated with […]. The sections were mounted and photographed with Nikon microscope (Eclipse TS100, Japan).
In addition, the morphology and gene expression were examined in the brown fat of mice. Hematoxylin and eosin staining (H&E staining) was conducted on brown adipose tissues collected at 13 weeks on HFD. […] Compared to the control mice, the size of brown adipocytes was much smaller in the butyrate group (FIG. 4B), indicating a higher thermogenic activity that leads to the reduction in fat accumulation. Mitochondrial function is regulated by gene expression (24). To understand the molecular basis of the increased thermogenesis, the expression of two thermogenesis-related genes, such as PGC-1α and UCP-1, were examined in BAT. mRNA of both genes was increased in the butyrate-treated mice. Brown adipose tissues were collected at 13 weeks on HFD, and gene expression for PGC-1α and UCP-1 was examined by qRT-PCR. In addition, the corresponding proteins were assayed using a whole cell lysate (100 μg) resolved in SDS-PAGE and blotted with PGC-1α and UCP-1 antibodies. […] Data in FIGS. 4A-4D are presented as means±SE (n=9 mice). * P<0.05. This increase in gene expression provides a molecular basis for the enhanced thermogenesis by the butyrate treatment.

[3] = tested on: skeletal muscle mitochondrial function; assay: Fatty acid oxidation and gene expression in skeletal muscle; format: in vivo, mouse; conditions: butyrate 5% w/w in HFD 13 weeks
Description: as §1
Mitochondrial function was examined in the skeletal muscle tissue and L6 muscle cells under butyrate treatment. Fatty acid oxidation was monitored in the […] with ^14C-labeled palmitic acid.
Vastus laterais muscle and blood samples were collected from mice at 13 weeks on HFD (18 weeks in age) and examined for fatty acid oxidation, gene expression, and blood lipids. FIG. 7A illustrates the fatty acid oxidation in muscle, measured as a fold change in ^14C-labeled CO2.
In addition, relative fold change in mRNA was used to indicate gene expression of PGC-1α target genes, such as CPT-1b (carnitine palmitoyltransferase-1b) and COX-I (cytochrome c oxidase I), and of the nuclear receptor PPARδ. In FIG. 7C, mitochondrial DNA of COX I was determined by Sybr green RT-PCR. The fatty acid oxidation was associated with expression of PGC-1α target genes, such as CPT-1b (carnitine palmitoyltransferase-1b) and COX-I (cytochrome c oxidase I) (9). Expression of these two genes was increased in the skeletal muscle of butyrate-treated mice (FIGS. 7B and 7C). The nuclear receptor PPARδ promotes fatty acids oxidation in skeletal muscle (29).

[4] = butyrate 5% w/w in HFD 13 weeks, immunoblot
[5] = butyrate 5% w/w in HFD 13 weeks, qRT-PCR

In the case of CCCC(=O)[O-].[Na+] [sodium butyrate], the “insulin tolerance test (ITT) response” value ([1]; 12 weeks, insulin 0.75 U/kg i.p., 30, 60, 120 and 180 min) is reported as “much better response to insulin at all time points”, the “fasting insulin, lower than control” value ([1]; 16 weeks on HFD) is reported as 50% and the “fasting glucose (HFD-induced increase)” value ([1]; after 10 weeks, 16 hr fasting) is reported as “this increase was not observed”. The “HOMA-IR, lower than control” value ([1]; overnight fast) was 60%, the AMPK phosphorylation (L6 muscle cells) was “increased” and the PGC-1α protein (L6 muscle cells) was “increased”. The p38 phosphorylation (L6 muscle cells) was “increased”, the “size of brown adipocytes” value ([2]; butyrate 5% w/w in HFD 13 weeks vs control, H&E) was “much smaller” and the “PGC-1α protein in brown fat” value [2, 4] was “also increased”. The “UCP-1 protein in brown fat” value [2, 4] was “also increased”, the “PGC-1α mRNA in BAT” value [2, 5] was “increased” and the “UCP-1 mRNA in BAT” value [2, 5] was “increased”. The “fatty acid oxidation in muscle, increase in 14C-labeled CO2” value ([3]; 14C-labeled palmitic acid) was 200%, the “CPT-1b expression in skeletal muscle” value ([3]; mRNA) was “increased” and the “PPARδ expression in skeletal muscle” value ([3]; mRNA) was “also increased”. For the same compound, the “COX-I expression in skeletal muscle” value ([3]; mitochondrial DNA by Sybr green RT-PCR) was “increased”.

Source: US20130123358A1, “Metabolic Benefits to Butyrate as a Chronic Diet Supplement” (priority 2009, published 2013)
